In this assay the test system is Store Operated Calcium Entry (SOCE) in BV-2 cells. As to the kind of experiment: Fluo-4 fluorimetric assay of tBHQ-induced store operated calcium entry in BV-2 cells. In kind it is cell-based, mouse. Conditions: Mus musculus, 10 μM, SOCE inhibition based on tBHQ-induced calcium influx. The method, then:
(A) BV-2 cells were plated in poly-d-lysine coated 24-well plate and incubated overnight. After 24 hours, cells were loaded with 2 μM Fluo-4 and placed in an extracellular solution containing 0 mM Ca^2+. Stores were depleted with 50 μM tBHQ and calcium influx was stimulated by the addition of 2 mM Ca^2+ alone (Ctrl), or in conbination with: compound with no activity (NM-3A), and compounds that positively (4-(1-(4-(3,5-bis(trifluoromethyl)-1H-pyrazol-1-yl)phenyl)-1H-1,2,3-triazol-4-yl)benzoic acid) and negatively (3-(1-(4-(4-(ethoxycarbonyl)-5-(trifluoromethyl)-1H-pyrazol-1-yl)phenyl)-1H-1,2,3-triazol-4-yl)benzoic acid) regulate SOCE. Calcium responses are expressed as changes in fluorescence intensity before and after the addition of selected modulators. (B) BV-2 cells were assayed for a calcium response to different concentrations of 3-(1-(4-(4-(ethoxycarbonyl)-5-(trifluoromethyl)-1H-pyrazol-1-yl)phenyl)-1H-1,2,3-triazol-4-yl)benzoic acid and 4-(1-(4-(3,5-bis(trifluoromethyl)-1H-pyrazol-1-yl)phenyl)-1H-1,2,3-triazol-4-yl)benzoic acid (0.1-0.3-1-3-10-30-100 μM) using Fluo-4 fluorimetric assay. Concentration-response curves represent the AUC % of both compounds as compared to positive control.
Immortalized primary mouse microglial BV-2 cells were obtained from ATCC (ATCC® CRL-2540™, Rockville, Md., USA) and were cultured in Dulbecco's Modified Eagle's Medium (DMEM; Sigma-Aldrich, Italy), supplemented with 10% heat-inactivated FBS (Gibco, Italy), 1-glutamine 50 mg/mL (Sigma-Aldrich, Italy), penicillin 10 U/mL and streptomycin […] (Sigma-Aldrich, Italy) at 37° C., under a 5% CO2 humidified atmosphere. For experiments, the cells were plated 2×10^4 per ml in 24 well plates) or onto glass coverslips at concentrations of 4×10^4 per mL (24 mm diame-ter coverslips in 6 well plates).
BV-2 cells were loaded with 5 μM Fluo-4 AM in presence of 0.02% of Pluronic-127 (both from Life Technologies, Italy) and 10 μM sulfinpyrazone in Krebs-Ringer buffer (KRB, 135 mM NaCl, 5 mM KCl, 0.4 mM KH2PO4, 1 mM MgSO4, 5.5 mM glucose, 20 mM HEPES, pH 7.4) containing 2 mM CaCl2 (30 min, room temperature). Subsequently, cells were washed and incubated with KRB for other 30 min to allow de-esterification of Fluo-4 AM. Experiments were carried out prior to and during exposure of the cells to the Ca^2+-free solution. In the absence of Ca^2+, the intracellular Ca^2+ stores were depleted by 2,5-t-butylhydroquinone (tBHQ, 50 μM; Sigma-Aldrich, Italy), a SERCA poison, and then calcium 2 mM was re-added to the extracellular solution. Fluorescence is then monitored sequentially for a second in each well for 600 seconds with excitation at 494 nm and an emission wavelength at 516 nm on the V3 Victor plate-reader (Perkin Elmer), generating time-curves for each well. Data were analysed using Microsoft Excel and GraphPad Prism.
The percentage of SOCE inhibition for each compound was determined based on value of tBHQ-induced calcium influx into BV-2 cells (Table 2).

The term inhibition denotes the drop in the measured response relative to a control, in per cent. With `FC(F)(F)c1cc(C(F)(F)F)n(-c2ccc(-n3cc(-c4ccccc4)nn3)cc2)n1` [1-(4-(3,5-bis(trifluoromethyl)-1H-pyrazol-1-yl)phenyl)-4-phenyl-1H-1,2,3-triazole], the inhibition at 10 µM was 0.84%. Then `Oc1cccc(-c2cn(-c3ccc(-n4nc(C(F)(F)F)cc4C(F)(F)F)cc3)nn2)c1` [3-(1-(4-(3,5-bis(trifluoromethyl)-1H-pyrazol-1-yl)phenyl)-1H-1,2,3-triazol-4-yl)phenol], with 4.06%; and `CCCC(C)OC(=O)c1cnn(-c2ccc(-n3cc(-c4cccc(C(=O)O)c4)nn3)cc2)c1C(F)(F)F` (stereo not shown) [3-(1-(4-(4-((pentan-2-yloxy)carbonyl)-5-(trifluoromethyl)-1H-pyrazol-1-yl)phenyl)-1H-1,2,3-triazol-4-yl)benzoic acid], with 91.9%. With `O=C(O)CCCc1cn(-c2ccc(-n3nc(C(F)(F)F)cc3C(F)(F)F)cc2)nn1` [4-(1-(4-(3,5-bis(trifluoromethyl)-1H-pyrazol-1-yl)phenyl)-1H-1,2,3-triazol-4-yl)butanoic acid], the inhibition at 10 µM was 19.9%.

For `COc1ccc(-n2cc(-c3ccc(-n4nc(C(F)(F)F)cc4C(F)(F)F)cc3)nn2)cc1OC` [4-(4-(3,5-bis(trifluoromethyl)-1H-pyrazol-1-yl)phenyl)-1-(3,4-dimethoxyphenyl)-1H-1,2,3-triazole], the inhibition at 10 µM was 5.7%.

Turning to `COc1ccc(-n2cc(-c3ccc(-n4nc(C(F)(F)F)cc4C(F)(F)F)cc3)nn2)cc1` [4-(4-(3,5-bis(trifluoromethyl)-1H-pyrazol-1-yl)phenyl)-1-(4-methoxyphenyl)-1H-1,2,3-triazole], the inhibition at 10 µM was found to be 21.3%. To `O=C(O)CCCn1cc(-c2ccc(-n3nc(C(F)(F)F)cc3C(F)(F)F)cc2)nn1` [4-(4-(4-(3,5-bis(trifluoromethyl)-1H-pyrazol-1-yl)phenyl)-1H-1,2,3-triazol-1-yl)butanoic acid] belongs 18.3%. Then `CCOC(=O)c1cnn(-c2ccc(-c3cn(-c4ccc(C(=O)O)cc4)nn3)cc2)c1C(F)(F)F` [4-(4-(4-(4-(ethoxycarbonyl)-5-(trifluoromethyl)-1H-pyrazol-1-yl)phenyl)-1H-1,2,3-triazol-1-yl)benzoic acid], with 19.8%. As to `CCOC(=O)c1cnn(-c2ccc(-c3cn(-c4ccc(OC)c(OC)c4)nn3)cc2)c1C(F)(F)F` [ethyl 1-(4-(1-(3,4-dimethoxyphenyl)-1H-1,2,3-triazol-4-yl)phenyl)-5-(trifluoromethyl)-1H-pyrazole-4-carboxylate], the inhibition at 10 µM came out at 12.8%. As for `CCOC(=O)c1cnn(-c2ccc(-c3cn(-c4cccc(N)c4)nn3)cc2)c1C(F)(F)F` [ethyl 1-(4-(1-(3-aminophenyl)-1H-1,2,3-triazol-4-yl)phenyl)-5-(trifluoromethyl)-1H-pyrazole-4-carboxylate], the inhibition at 10 µM worked out at 23%. `CCOC(=O)c1cnn(-c2ccc(-c3cn(-c4ccc(OC)cc4)nn3)cc2)c1C(F)(F)F` [ethyl 1-(4-(1-(4-methoxyphenyl)-1H-1,2,3-triazol-4-yl)phenyl)-5-(trifluoromethyl)-1H-pyrazole-4-carboxylate]: the inhibition at 10 µM stood at 16.9%. Consider `CCOC(=O)c1cnn(-c2ccc(-c3cn(-c4cccnc4)nn3)cc2)c1C(F)(F)F` [ethyl 1-(4-(1-(pyridin-3-yl)-1H-1,2,3-triazol-4-yl)phenyl)-5-(trifluoromethyl)-1H-pyrazole-4-carboxylate], for which the inhibition at 10 µM came to 37.4%. Consider `CCOC(=O)c1cnn(-c2ccc(-c3cn(-c4ccncc4)nn3)cc2)c1C(F)(F)F` [ethyl 1-(4-(1-(pyridin-4-yl)-1H-1,2,3-triazol-4-yl)phenyl)-5-(trifluoromethyl)-1H-pyrazole-4-carboxylate], for which the inhibition at 10 µM was 20%. In the case of `CCOC(=O)c1cnn(-c2ccc(-n3cc(-c4ccccc4NC(C)=O)nn3)cc2)c1C(F)(F)F` [ethyl 1-(4-(4-(2-acetamidophenyl)-1H-1,2,3-triazol-1-yl)phenyl)-5-(trifluoromethyl)-1H-pyrazole-4-carboxylate], the inhibition at 10 µM stood at 28%. As to `CCOC(=O)c1cnn(-c2ccc(-n3cc(-c4ccc(OC)c(OC)c4)nn3)cc2)c1C(F)(F)F` [ethyl 1-(4-(4-(3,4-dimethoxyphenyl)-1H-1,2,3-triazol-1-yl)phenyl)-5-(trifluoromethyl)-1H-pyrazole-4-carboxylate], the inhibition at 10 µM was determined as 17.2%. `CCOC(=O)c1cnn(-c2ccc(-n3cc(-c4cccc(C(=O)OC)c4)nn3)cc2)c1C(F)(F)F` [ethyl 1-(4-(4-(3-(methoxycarbonyl)phenyl)-1H-1,2,3-triazol-1-yl)phenyl)-5-(trifluoromethyl)-1H-pyrazole-4-carboxylate]: the inhibition at 10 µM stood at 21.8%. In the case of `CCOC(=O)c1cnn(-c2ccc(-n3cc(-c4cccc(N)c4)nn3)cc2)c1C(F)(F)F` [ethyl 1-(4-(4-(3-aminophenyl)-1H-1,2,3-triazol-1-yl)phenyl)-5-(trifluoromethyl)-1H-pyrazole-4-carboxylate], the inhibition at 10 µM was 24.8%. As to `CCOC(=O)c1cnn(-c2ccc(-n3cc(-c4cccc(C(N)=O)c4)nn3)cc2)c1C(F)(F)F` [ethyl 1-(4-(4-(3-carbamoylphenyl)-1H-1,2,3-triazol-1-yl)phenyl)-5-(trifluoromethyl)-1H-pyrazole-4-carboxylate], the inhibition at 10 µM came out at 2.27%.

As to `CCOC(=O)c1cnn(-c2ccc(-n3cc(-c4cccc(O)c4)nn3)cc2)c1C(F)(F)F` [ethyl 1-(4-(4-(3-hydroxyphenyl)-1H-1,2,3-triazol-1-yl)phenyl)-5-(trifluoromethyl)-1H-pyrazole-4-carboxylate], the inhibition at 10 µM was found to be 3.53%. To `CCOC(=O)c1cnn(-c2ccc(-n3cc(-c4ccc(N)cc4)nn3)cc2)c1C(F)(F)F` [ethyl 1-(4-(4-(4-aminophenyl)-1H-1,2,3-triazol-1-yl)phenyl)-5-(trifluoromethyl)-1H-pyrazole-4-carboxylate] belongs 8.31%; to `CCOC(=O)c1cnn(-c2ccc(-n3cc(-c4ccc(OC)cc4)nn3)cc2)c1C(F)(F)F` [ethyl 1-(4-(4-(4-methoxyphenyl)-1H-1,2,3-triazol-1-yl)phenyl)-5-(trifluoromethyl)-1H-pyrazole-4-carboxylate], 4.77%; to `CCOC(=O)c1cnn(-c2ccc(-n3cc(-c4ccccc4)nn3)cc2)c1C(F)(F)F` [ethyl 1-(4-(4-phenyl-1H-1,2,3-triazol-1-yl)phenyl)-5-(trifluoromethyl)-1H-pyrazole-4-carboxylate], 14.3%.

These data come from patent US10519138B2, “Modulators of SOCE, compositions, and uses thereof” (Università degli Studi del Piemonte Orientale “Amedeo …, priority 2016, dated 2019).
